Test results from publication PMC10129394, “PK1 from Drosophila obscurin is an inactive pseudokinase with scaffolding properties” (Open Biology, 2023).

Assays:
[1] = biological target: T1, dmObsc-PK1 (Drosophila melanogaster, UniProt A8DYP0); experiment: isothermal titration calorimetry; format: binding
T1 construct: gene Obsc; pseudokinase domain PK1 plus 40 C-terminal residues (3186-3480); N-terminal His6-3C tag (pOPINF), cleaved with 3C protease; E. coli Rosetta

[2] = biological target: T1, dmObsc-PK1; experiment: X-ray crystallography, […] Å; conditions: co-crystallized with 3 mM ATP and 1 mM MgCl2, ADP found in density; no cation observed; pH 9.5; ATP-binding pocket

T1 sequence (A8DYP0 3186-3480): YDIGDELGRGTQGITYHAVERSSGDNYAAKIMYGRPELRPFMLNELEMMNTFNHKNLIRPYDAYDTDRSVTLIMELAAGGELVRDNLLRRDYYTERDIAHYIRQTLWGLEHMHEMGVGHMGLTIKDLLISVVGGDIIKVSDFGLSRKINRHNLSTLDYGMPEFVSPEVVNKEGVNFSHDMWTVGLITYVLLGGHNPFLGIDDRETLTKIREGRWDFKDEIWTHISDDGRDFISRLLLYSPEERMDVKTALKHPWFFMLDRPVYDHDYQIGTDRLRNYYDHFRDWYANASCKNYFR

Row | Kd [1] [µM] | Compound | X-ray crystallography, 1.90 Å [2]
1 | 61.8 ± 4.2 | Nc1ncnc2c1ncn2[C@@H]1O[C@H](COP(=O)(O)OP(=O)(O)OP(=O)(O)O)[C@@H](O)[C@H]1O [ATP] | –
2 | – | Nc1ncnc2c1ncn2[C@@H]1O[C@H](COP(=O)(O)OP(=O)(O)O)[C@@H](O)[C@H]1O [ADP] | electron density maps revealed ADP bound to the kinase
